Results: ChEMBL document CHEMBL5247581, “Design, synthesis and biological evaluation of new quinazolinone-benzopyran-indole hybrid compounds promoting osteogenesis through BMP2 upregulation” (Eur J Med Chem, 2022)
Active and inactive are the calls of the source. No cut-off for these calls is given here.

Legend:
[1] = test system: Calvarial osteoblast; experiment: Induction of osteogenesis in mouse Osteoblast cells assessed as ALP activity at 0.001 to 100 uM measured for 24 to 48 hrs; format: functional; conditions: dose 0.001-100 µM, time 24-48 hrs
[2] = test system: Calvarial osteoblast; experiment: Induction of osteogenesis in mouse Osteoblast cells assessed as ALP activity at 100 pM measured for 48 hrs; format: functional, cell-based
[3] = test system: Calvarial osteoblast; experiment: Cytotoxicity against mouse Osteoblast cells assessed as reduction in cell viability at 100 uM measured for 24 to 48 hrs by MTT assay; format: toxicity, cell-based; conditions: time 24-48 hrs
[4] = test system: Calvarial osteoblast; experiment: Induction of osteogenesis in mouse Osteoblast cells assessed as ALP activity at 0.001 to 100 uM measured for 48 hrs; format: functional, cell-based; conditions: dose 0.001-100 µM
[5] = test system: Calvarial osteoblast; experiment: Induction of osteogenesis in mouse Osteoblast cells assessed as ALP activity at 0.001 to 100 uM measured for 24 hrs; format: functional, cell-based; conditions: dose 0.001-100 µM
[6] = test system: Calvarial osteoblast; experiment: Induction of osteoblast differentiation in mouse calvarial osteoblasts cells assessed as ALP activity at 1 to 10000 pM measured for 7 days; format: functional, cell-based; conditions: dose 1-10000 pM, time 7.0 day
[7] = test system: Calvarial osteoblast; experiment: Cytotoxicity against mouse Osteoblast cells assessed as reduction in cell viability at 0.000001 to 1 uM measured for 24 to 48 hrs by MTT assay; format: toxicity, cell-based; conditions: dose lower 1e-06 µM, time lower 24 hrs, dose upper 1 µM, time upper 48 hrs
[8] = test system: Mus musculus; experiment: Induction of bone formation in BALB/c mouse model assessed as mineralizing surface per bone surface at 1 to 5 mg/kg by double labelling based analysis; format: functional, organism-based; conditions: dose 1-5 mg/kg
[9] = test system: Mus musculus; experiment: Induction of bone formation in BALB/c mouse model assessed as increase in intercortical distance at 1 mg/kg by histopathological analysis; format: functional, organism-based
[10] = Upregulation of BMP2 expression in mouse Osteoblast cells assessed as fold increase in phosphorylated p38 level measured at 24 hrs by ELISA analysis; format: functional, Calvarial osteoblast
[11] = test system: Mus musculus; experiment: Induction of bone formation in BALB/c mouse model assessed as bone formation rate/bone surface at 1 to 5 mg/kg by double labelling based analysis; format: functional, organism-based; conditions: dose 1-5 mg/kg
[12] = test system: Calvarial osteoblast; experiment: Induction of osteoblast differentiation in mouse Osteoblast cells assessed as fold increase in BMP2 expression at 100 pM by qRT-PCR analysis; format: functional
[13] = test system: Mus musculus; experiment: Induction of bone formation in BALB/c mouse model assessed as mineral apposition rate at 1 to 5 mg/kg by double labelling based analysis; format: functional, organism-based; conditions: dose 1-5 mg/kg
[14] = test system: Calvarial osteoblast; experiment: Induction of osteogenesis in mouse Osteoblast cells assessed as fold increase in RUNX2 gene expression at 1 pM by qRT-PCR analysis; format: functional
[15] = test system: Mus musculus; experiment: Induction of osteogenesis in BALB/c mouse assessed as increase in Col1a1 gene expression at 5 mg/kg, ip by qRT-PCR analysis; format: functional, organism-based
[16] = Induction of osteoblast mineralization in mouse Bone marrow cells assessed as increase in mineralized nodule formation at 100 pM replaced with media every 48 hrs for 21 days by Alizarin Red staining-based microscopic analysis; format: functional, Bone marrow cell; conditions: time 21 day
[17] = test system: Calvarial osteoblast; experiment: Induction of osteogenesis in mouse Osteoblast cells assessed as fold increase in ALP expression at 100 pM by qRT-PCR analysis; format: functional
[18] = test system: Calvarial osteoblast; experiment: Induction of osteogenesis in mouse Osteoblast cells assessed as fold increase in BGLAP expression at 10 nM by qRT-PCR analysis; format: functional
[19] = test system: Mus musculus; experiment: Induction of osteogenesis in BALB/c mouse assessed as fold increase in BMP2 gene expression at 5 mg/kg, ip by qRT-PCR analysis; format: functional
[20] = test system: Mus musculus; experiment: Induction of osteogenesis in BALB/c mouse assessed as fold increase in BGLAP gene expression at 5 mg/kg, ip by qRT-PCR analysis; format: functional
[21] = test system: Mus musculus; experiment: Induction of bone formation in BALB/c mouse model assessed as calvarial bone formation at 1 to 5 mg/kg by double labelling based analysis; format: functional, organism-based; conditions: dose 1-5 mg/kg
[22] = test system: Mus musculus; experiment: Induction of osteogenesis in BALB/c mouse assessed as increase in RUNX2 gene expression at 5 mg/kg, ip by qRT-PCR analysis; format: functional, organism-based
[23] = test system: Calvarial osteoblast; experiment: Induction of osteogenesis in mouse Osteoblast cells assessed as fold increase in mRNA expression at 1 to 10000 pM by qRT-PCR analysis; format: functional; conditions: dose 1-10000 pM
[24] = test system: Calvarial osteoblast; experiment: Induction of osteogenesis in mouse Osteoblast cells assessed as fold increase in BGLAP expression at 1 to 100 pM by qRT-PCR analysis; format: functional; conditions: dose 1-100 pM
[25] = test system: Calvarial osteoblast; experiment: Induction of osteogenesis in mouse Osteoblast cells assessed as fold increase in BMP2 gene expression at 100 pM by qRT-PCR analysis; format: functional
[26] = test system: Mus musculus; experiment: Induction of osteogenesis in BALB/c mouse assessed as increase in BMP2 gene expression at 5 mg/kg, ip by qRT-PCR analysis; format: functional, organism-based
[27] = test system: Mus musculus; experiment: Induction of bone formation in BALB/c mouse model assessed as morphological architecture at 1 mg/kg by histopathological analysis; format: functional, organism-based
[28] = test system: Calvarial osteoblast; experiment: Induction of osteoblast differentiation in mouse Osteoblast cells assessed as fold increase in RUNX2 expression at 100 pM by qRT-PCR analysis; format: functional
[29] = test system: Calvarial osteoblast; experiment: Induction of osteogenesis in mouse Osteoblast cells assessed as ALP activity at 100 pM measured for 24 to 48 hrs; format: functional, cell-based; conditions: time 24-48 hrs
[30] = test system: Mus musculus; experiment: Induction of osteogenesis in BALB/c mouse assessed as increase in BGLAP gene expression at 5 mg/kg, ip by qRT-PCR analysis; format: functional, organism-based
[31] = Induction of osteoblast mineralization in mouse Bone marrow cells assessed as increase in mineralized nodule formation at 10 nM replaced with media every 48 hrs for 21 days by Alizarin Red staining-based microscopic analysis; format: functional, Bone marrow cell; conditions: time 21 day
[32] = test system: Mus musculus; experiment: Induction of osteogenesis in BALB/c mouse assessed as fold increase in Col1a1 gene expression at 5 mg/kg, ip by qRT-PCR analysis; format: functional
[33] = test system: Mus musculus; experiment: Induction of osteogenesis in BALB/c mouse assessed as fold increase in RUNX2 gene expression at 5 mg/kg, ip by qRT-PCR analysis; format: functional
[34] = test system: Calvarial osteoblast; experiment: Induction of osteogenesis in mouse Osteoblast cells assessed as ALP activity at 0.001 to 1 uM measured for 48 hrs; format: functional, cell-based; conditions: dose 0.001-1 µM
[35] = test system: Calvarial osteoblast; experiment: Induction of osteogenesis in mouse Osteoblast cells assessed as ALP activity at 1 to 1000 pM measured for 24 to 48 hrs; format: functional, cell-based; conditions: dose 1-1000 pM, time 24-48 hrs
[36] = test system: Calvarial osteoblast; experiment: Induction of osteogenesis in mouse Osteoblast cells assessed as ALP activity at 100 to 1000000 pM measured for 24 to 48 hrs; format: functional, cell-based; conditions: dose 100-1e+06 pM, time 24-48 hrs
[37] = test system: Calvarial osteoblast; experiment: Induction of osteogenesis in mouse Osteoblast cells assessed as ALP activity at 10 nM measured for 24 to 48 hrs; format: functional, cell-based; conditions: time 24-48 hrs

## CCc1cc(-c2nc3ccccc3c(=O)n2C)cc2c1OC(N)=C(C#N)C2c1c(C)[nH]c2ccc(OC)cc12 (stereo not drawn)
[1]
  Activity: 2%

## Cc1[nH]c2ccccc2c1C1C(C#N)=C(N)Oc2c1cc(-c1nc3ccccc3c(=O)[nH]1)cc2C(C)(C)C (stereo not drawn)
[1]
  Activity: inactive

## Cc1cc(-c2nc3ccccc3c(=O)n2C)cc2c1OC(N)=C(C#N)C2c1c(C)[nH]c2ccc(Cl)cc12 (stereo not drawn)
[2]
  Activity: Active
[3]
  Activity: Toxic
[4]
  Activity: Active
[5]
  Activity: inactive
[1]
  Activity: 25%
[6]
  Activity: inactive
[7]
  Activity: Non-Toxic

## CCn1c(-c2cc(C)c3c(c2)C(c2c(C)[nH]c4ccccc24)C(C#N)=C(N)O3)nc2ccccc2c1=O (stereo not drawn)
[8]
  Activity: Active
[9]
  Activity: Active
[10]
  fold change (FC): 1.5
[11]
  Activity: Active
[12]
  fold change (FC): 2.3
[3]
  Activity: Toxic
[13]
  Activity: Active
[4]
  Activity: Active
[14]
  fold change (FC): 2
[15]
  Activity: Active
[16]
  Activity: 30%
[17]
  fold change (FC): 3
[18]
  fold change (FC): 4
[19]
  fold change (FC): 6
[20]
  fold change (FC): 7
[21]
  Activity: Active
[22]
  Activity: Active
[5]
  Activity: inactive
[23]
  fold change (FC): 2
[24]
  fold change (FC): 2
[25]
  fold change (FC): 3
[1]
  Activity: 50%
[6]
  Activity: Active
[7]
  Activity: Non-Toxic
[26]
  Activity: Active
[27]
  Activity: Active
[28]
  fold change (FC): 2.7
[29]
  Activity: Active
[30]
  Activity: Active
[31]
  Activity: 50%
[32]
  fold change (FC): 10
[33]
  fold change (FC): 11
[34]
  Activity: Active

## Cc1[nH]c2ccc(Cl)cc2c1C1C(C#N)=C(N)Oc2c(C(C)C)cc(-c3nc4ccccc4c(=O)n3C)cc21 (stereo not drawn)
[1]
  Activity: 5%

## CCc1cc(-c2nc3ccccc3c(=O)n2C)cc2c1OC(N)=C(C#N)C2c1c(C)[nH]c2ccc(Cl)cc12 (stereo not drawn)
[1]
  Activity: 1%

## CCc1cc(-c2nc3ccccc3c(=O)n2CC)cc2c1OC(N)=C(C#N)C2c1c(C)[nH]c2ccccc12 (stereo not drawn)
[2]
  Activity: Active
[3]
  Activity: Toxic
[4]
  Activity: Active
[5]
  Activity: inactive
[1]
  Activity: 38%
[6]
  Activity: inactive
[7]
  Activity: Non-Toxic

## Cc1cc2ccccc2[nH]1
[35]
  Activity: inactive
[1]
  Activity: inactive
[36]
  Activity: inactive
[37]
  Activity: inactive

## CCn1c(-c2cc(C)c3c(c2)C(c2c(C)n(CC)c4ccccc24)C(C#N)=C(N)O3)nc2ccccc2c1=O (stereo not drawn)
[1]
  Activity: inactive

## COc1ccc2[nH]c(C)c(C3C(C#N)=C(N)Oc4c3cc(-c3nc5ccccc5c(=O)[nH]3)cc4C(C)(C)C)c2c1 (stereo not drawn)
[1]
  Activity: inactive

## COc1ccc2[nH]c(C)c(C3C(C#N)=C(N)Oc4c(C)cc(-c5nc6ccccc6c(=O)n5C)cc43)c2c1 (stereo not drawn)
[1]
  Activity: 13%

## CCCc1cc(-c2nc3ccccc3c(=O)n2C)cc2c1OC(N)=C(C#N)C2c1c(C)[nH]c2ccccc12 (stereo not drawn)
[1]
  Activity: inactive

## CCn1c(-c2cc(C)c3c(c2)C(c2c(C)n(C)c4ccccc24)C(C#N)=C(N)O3)nc2ccccc2c1=O (stereo not drawn)
[1]
  Activity: 14%

## Cc1cc(-c2nc3ccccc3c(=O)n2C)cc2c1OC(N)=C(C#N)C2c1c(C)[nH]c2ccccc12 (stereo not drawn)
[1]
  Activity: inactive

## CCn1c(-c2cc3c(c(C(C)(C)C)c2)OC(N)=C(C#N)C3c2c(C)[nH]c3ccc(OC)cc23)nc2ccccc2c1=O (stereo not drawn)
[1]
  Activity: 1%

## Cc1[nH]c2ccc(Cl)cc2c1C1C(C#N)=C(N)Oc2c1cc(-c1nc3ccccc3c(=O)[nH]1)cc2C(C)(C)C (stereo not drawn)
[1]
  Activity: 2%
